Common to all, as to test: whole-cell patch clamp, mechanically activated current block
What all share (type): cell-based
A general note: Patch clamp records ionic current or voltage across a cell membrane.

Assay [1] has as its target T1, mPiezo2 (Mus musculus, UniProt Q8CD54, E2416K).
T1 construct: gene Piezo2; full length, pCMV-Sport6 vector (printed for the E2416K mutant), transfected HEK293T
As to conditions: -80 mV; extracellular RR; pH 7.3; room temperature.

The target of assay [2] is T2, mPiezo1 (Mus musculus, UniProt E2JF22, E2133Q).
T2 construct: gene Piezo1; full length, 2547 residues, IRES-EGFP pcDNA3.1(-) vector, transfected HEK293T
T2 sequence (E2JF22 whole entry E2133Q): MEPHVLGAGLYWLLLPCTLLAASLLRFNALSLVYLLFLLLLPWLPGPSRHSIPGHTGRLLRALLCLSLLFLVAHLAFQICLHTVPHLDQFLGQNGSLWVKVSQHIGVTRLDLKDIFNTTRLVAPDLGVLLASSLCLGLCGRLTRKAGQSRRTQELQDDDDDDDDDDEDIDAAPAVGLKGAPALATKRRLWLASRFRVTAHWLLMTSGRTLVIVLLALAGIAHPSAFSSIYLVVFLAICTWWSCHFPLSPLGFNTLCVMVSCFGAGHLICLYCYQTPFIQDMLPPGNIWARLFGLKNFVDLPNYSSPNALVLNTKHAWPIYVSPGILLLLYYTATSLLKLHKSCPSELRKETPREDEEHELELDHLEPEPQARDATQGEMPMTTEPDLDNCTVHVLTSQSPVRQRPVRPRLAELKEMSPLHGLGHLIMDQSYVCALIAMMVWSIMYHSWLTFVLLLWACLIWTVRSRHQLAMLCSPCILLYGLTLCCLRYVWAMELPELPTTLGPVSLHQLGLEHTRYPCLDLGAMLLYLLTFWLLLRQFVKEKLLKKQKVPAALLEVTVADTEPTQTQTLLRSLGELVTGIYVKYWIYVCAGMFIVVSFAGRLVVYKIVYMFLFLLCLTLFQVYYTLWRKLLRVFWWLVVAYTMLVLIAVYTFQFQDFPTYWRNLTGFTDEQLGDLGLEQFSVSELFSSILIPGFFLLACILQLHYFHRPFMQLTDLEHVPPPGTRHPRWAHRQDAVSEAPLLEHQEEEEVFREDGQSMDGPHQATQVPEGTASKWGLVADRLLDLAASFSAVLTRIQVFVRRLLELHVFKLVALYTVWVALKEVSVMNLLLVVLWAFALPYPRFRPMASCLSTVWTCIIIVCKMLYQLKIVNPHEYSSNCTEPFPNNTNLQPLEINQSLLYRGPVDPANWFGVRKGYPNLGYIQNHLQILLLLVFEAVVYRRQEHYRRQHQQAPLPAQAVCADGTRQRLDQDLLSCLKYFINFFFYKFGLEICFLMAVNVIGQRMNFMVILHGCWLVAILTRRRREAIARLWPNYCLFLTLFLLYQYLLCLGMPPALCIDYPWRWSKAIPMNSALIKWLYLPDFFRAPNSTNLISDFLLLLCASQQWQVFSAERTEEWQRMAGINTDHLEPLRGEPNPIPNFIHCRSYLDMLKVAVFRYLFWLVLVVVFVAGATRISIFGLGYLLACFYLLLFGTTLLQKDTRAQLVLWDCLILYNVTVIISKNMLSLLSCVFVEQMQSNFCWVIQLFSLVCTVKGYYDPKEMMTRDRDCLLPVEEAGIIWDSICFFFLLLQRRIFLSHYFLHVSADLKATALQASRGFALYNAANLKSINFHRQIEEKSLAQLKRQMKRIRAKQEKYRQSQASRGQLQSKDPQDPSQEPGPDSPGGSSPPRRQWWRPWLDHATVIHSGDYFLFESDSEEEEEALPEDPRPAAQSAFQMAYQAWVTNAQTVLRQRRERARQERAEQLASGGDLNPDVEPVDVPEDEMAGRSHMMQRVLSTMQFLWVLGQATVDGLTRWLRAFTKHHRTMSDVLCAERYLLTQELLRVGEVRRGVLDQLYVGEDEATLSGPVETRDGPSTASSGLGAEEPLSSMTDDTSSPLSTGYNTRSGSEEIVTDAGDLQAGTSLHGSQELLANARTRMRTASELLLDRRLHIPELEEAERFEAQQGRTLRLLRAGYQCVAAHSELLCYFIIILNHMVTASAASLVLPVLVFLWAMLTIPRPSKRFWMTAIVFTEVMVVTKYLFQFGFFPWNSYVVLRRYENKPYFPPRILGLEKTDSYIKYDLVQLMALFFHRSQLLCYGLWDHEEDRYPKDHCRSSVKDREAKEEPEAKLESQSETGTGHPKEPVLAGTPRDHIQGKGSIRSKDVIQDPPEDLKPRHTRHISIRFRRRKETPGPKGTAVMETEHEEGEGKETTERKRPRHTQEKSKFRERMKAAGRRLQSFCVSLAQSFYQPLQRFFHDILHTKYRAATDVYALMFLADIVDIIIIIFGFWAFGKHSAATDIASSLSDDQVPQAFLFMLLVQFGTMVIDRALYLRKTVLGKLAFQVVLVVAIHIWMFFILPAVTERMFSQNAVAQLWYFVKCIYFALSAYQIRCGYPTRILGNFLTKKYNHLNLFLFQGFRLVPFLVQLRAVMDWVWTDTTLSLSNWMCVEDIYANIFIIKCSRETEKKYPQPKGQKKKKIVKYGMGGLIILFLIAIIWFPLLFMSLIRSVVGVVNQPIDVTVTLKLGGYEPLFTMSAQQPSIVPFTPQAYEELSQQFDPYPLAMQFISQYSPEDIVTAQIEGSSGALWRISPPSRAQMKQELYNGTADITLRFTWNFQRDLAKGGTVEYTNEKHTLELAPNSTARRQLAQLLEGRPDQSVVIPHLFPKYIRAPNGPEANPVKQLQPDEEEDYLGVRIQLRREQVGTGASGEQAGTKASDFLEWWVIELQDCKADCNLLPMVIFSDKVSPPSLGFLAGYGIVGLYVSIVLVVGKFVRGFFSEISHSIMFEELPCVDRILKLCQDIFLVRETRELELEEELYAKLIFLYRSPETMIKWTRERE
As to conditions: -80 mV; extracellular RR; pH 7.3; room temperature.

The target in assay [3] is T3, mPiezo2 (Mus musculus, UniProt Q8CD54).
T3 construct: gene Piezo2; full length, pCMV-Sport6 vector (printed for the E2416K mutant), transfected HEK293T
As to conditions: -80 mV; extracellular RR; pH 7.3; room temperature.

Assay [4] concerns the target T4, mPiezo1 (Mus musculus, UniProt E2JF22).
T4 construct: gene Piezo1; full length, 2547 residues, IRES-EGFP pcDNA3.1(-) vector, transfected HEK293T
Particulars: -80 mV; extracellular RR; pH 7.3; room temperature; voltage-dependent pore block.

Assay [5] concerns the target T5, mPiezo1 (Mus musculus, UniProt E2JF22, E2133K).
T5 construct: gene Piezo1; full length, 2547 residues, IRES-EGFP pcDNA3.1(-) vector, transfected HEK293T
As to conditions: -80 mV; extracellular RR; pH 7.3; room temperature.

For assay [6], the target named is T6, mPiezo1 (Mus musculus, UniProt E2JF22, E2133D).
T6 construct: gene Piezo1; full length, 2547 residues, IRES-EGFP pcDNA3.1(-) vector, transfected HEK293T
T6 sequence (E2JF22 whole entry E2133D): as the sequence (E2JF22 whole entry E2133Q) above, with Q2133D counted along it
As to conditions: -80 mV; extracellular RR; pH 7.3; room temperature.

These results are taken from article PMC4445471, “Piezo1 ion channel pore properties are dictated by C-terminal region” (Nature Communications, 2015).

T5 sequence (E2JF22 whole entry E2133K): as the sequence (E2JF22 whole entry E2133Q) above, with Q2133K counted along it
T4 sequence (E2JF22 whole entry): as the sequence (E2JF22 whole entry E2133Q) above, with Q2133E counted along it

In the case of `N.N.N.N.N.N.N.N.N.N.N.N.N.N.[Cl-].[Cl-].[Cl-].[Cl-].[Cl-].[Cl-].[O-2].[O-2].[Ru+3].[Ru+3].[Ru+4]` [ruthenium red], the “% block at 30 μM” value at mPiezo2 [1] came out at 49.6±4.6%; on mPiezo2 [3] it was 70.8±1.4%; on mPiezo1 [5], 8.1±7.1%. In addition, the 50% inhibitory concentration (IC50) (commonly the concentration that gives 50% inhibition) against mPiezo1 [2] was 5.62 ± 1.27 µM; against mPiezo1 [4], 4.71 ± 0.83 µM; at mPiezo1 [6], 1.26 ± 0.28 µM.
